“Also recorded” adds a separate entry of the source. Where two headings read alike, the source gives them in different places.
How the values were obtained:
[1] = system: MCF-7/DOX cells; experiment: Inhibition of MCF-7/DOX cell growth, microtiter methylene blue staining assay, 48 h; format: cell-based, human
[2] = system: MCF-7/DOX cells; experiment: Antagonism of multidrug resistance (sensitization to doxorubicin) in MCF-7/DOX cells, MDR Ratio; format: cell-based, human; conditions: for MDR Ratio (IC50 doxorubicin alone / IC50 doxorubicin in presence of modifier): 48 h
[3] = target: T1, Calmodulin (Bos taurus, UniProt P62157); experiment: biochemical
[4] = Norman and Drummond; cited from earlier work
[5] = system: MCF-7/DOX cells; experiment: Cellular accumulation of doxorubicin in MDR MCF-7/DOX cells; format: cell-based, human; conditions: 3 hours, 15 μM doxorubicin
From the text: Cellular content of doxorubicin was computed from standard curves prepared with known amounts of doxorubicin.

[6] = system: L1210/DOX cells; conditions: Ganapathi and Grabowski; cited from earlier work
[7] = system: KC/ADR10 human breast cells; conditions: Ahn et al; cited from earlier work
[8] = system: clinically resistant cancer; conditions: with doxorubicin or bleomycin, Phase I, cited from earlier work
[9] = system: P-glycoprotein; conditions: MDR Chinese hamster lung cells, Center; cited from earlier work
[10] = system: MCF-7/DOX cells; conditions: Fine et al; cited from earlier work
[11] = system: MCF-7/DOX cells; experiment: Cellular accumulation of cis and trans-flupenthixol in MCF-7/DOX cells; format: cell-based, human; conditions: for cell associated drug concentration at 3 μM / cell associated drug concentration at 10 μM / cell associated drug concentration at 100 μM: 3 hour incubation; for cellular accumulation of thioxanthene isomers, in words: MDR cells
Method: Cells were washed three times in cold PBS by centrifugation at 100× g for 10 minutes, resuspended in 2 ml of 0.3N HCl in 50% ethanol, and sonicated for 10 pulses at 200 ws with a Tekmar cell sonicator (Tekmar, Cincinnati, Ohio). Following centrifugation at 1000× g for 30 minutes, the supernatant was removed and assayed for drug content with a Perkin-Elmer 512 spectrofluorometer (Norwalk, Conn.). Optimal excitation and emission wavelengths for both thioxanthene isomers were determined to be 320 nm and 400 nm, respectively.

[12] = target: T1, Calmodulin; conditions: Norman and Drummond; cited from earlier work
[13] = system: acute schizophrenia; conditions: humans; cited from earlier work
[14] = Homo sapiens, MCF7-DOX, 48 h, MCF-7/DOX cells, 48 h, drug alone; read-out: IC50 for cell growth inhibition
[15] = MCF-7/DOX cells, 48 h, drug alone; read-out: IC50 for cell growth inhibition
[16] = Homo sapiens, MCF7-DOX, 48 h, read-out: IC50 for cell growth inhibition
[17] = Homo sapiens, MCF7-DOX, 48 h; read-out: IC50 for cell growth inhibition
[18] = read-out: IC50 for cell growth inhibition
[19] = Homo sapiens, MCF7-DOX, 48 h, MCF-7/DOX cells, 48 h, structurally related compounds; read-out: Cell Growth Inhibition IC50 (Table 5)
[20] = Homo sapiens, MCF7-DOX, 48 h, read-out: concentration which alone produces 10% inhibition of cell growth
[21] = Homo sapiens, MCF7-DOX, 48 h; read-out: Cell Growth Inhibition IC50 (Table 5)

With CN(C)CCCN1c2ccccc2Sc2cccc(Cl)c21 [1-Chlorpromazine] the IC50 [1, 14] was 21 µM, the “MDR Ratio (IC50 doxorubicin alone / IC50 doxorubicin in presence of modifier)” value [2] was 1.3 and the IC50 [3] was 74 µM.
For CN(C)CCN1c2ccccc2Sc2ccc(Cl)cc21 [2-Chloro-10-[2-(dimethylamino)ethyl] phenothiazine], the IC50 [1, 14] was 27 µM, the “MDR Ratio (IC50 doxorubicin alone / IC50 doxorubicin in presence of modifier)” value [2] was 1.5 and the IC50 [3] was 60 µM.
For CN(C)CCCCN1c2ccccc2Sc2ccc(Cl)cc21 [2-Chloro-10-[4-(dimethylamino)butyl] phenothiazine], the IC50 [1, 14] was 7 µM, the “MDR Ratio (IC50 doxorubicin alone / IC50 doxorubicin in presence of modifier)” value [2] was 2.0 and the IC50 [3] was 40 µM.
With CN(C)CCCN1c2cc(O)ccc2Sc2cc(O)c(Cl)cc21 [3,8-Dihydroxychlorpromazine] the IC50 [1, 14] was 400 µM, the “MDR Ratio (IC50 doxorubicin alone / IC50 doxorubicin in presence of modifier)” value [2] was 0.9 and the IC50 [3] was 183 µM.
With CN(C)CCCN1c2ccccc2Sc2cc(Cl)ccc21 [3-Chlorpromazine] the IC50 [1, 14] was 10 µM, the “MDR Ratio (IC50 doxorubicin alone / IC50 doxorubicin in presence of modifier)” value [2] was 1.3 and the IC50 [3] was 24 µM.
With CN(C)CCCN1c2ccccc2Sc2c(Cl)cccc21 [4-Chlorpromazine] the IC50 [1, 14] was 15 µM, the “MDR Ratio (IC50 doxorubicin alone / IC50 doxorubicin in presence of modifier)” value [2] was 1.4 and the IC50 [3] was 25 µM.
With CN(C)CCCN1c2cc(Cl)ccc2Sc2cc(O)c(O)cc21 [7,8-Dihydroxychlorpromazine] the IC50 [1, 14] was 63 µM, the “MDR Ratio (IC50 doxorubicin alone / IC50 doxorubicin in presence of modifier)” value [2] was 0.8 and the IC50 [3] was 82 µM.
With CN(C)CCCN1c2ccc(O)cc2Sc2ccc(Cl)cc21 [7-Hydroxychlorpromazine] the IC50 [1, 14] was 50 µM, the “relative potency in inhibiting cell growth (fold less potent)” value ([1]; versus chlorpromazine) was 6 fold and the “MDR Ratio (IC50 doxorubicin alone / IC50 doxorubicin in presence of modifier)” value [2] was 1.0. For the same compound, the IC50 [3] was 68 µM.
In the case of CCN(CC)CCCN1c2ccccc2Sc2ccc(Cl)cc21 [Chlorproethazine], the IC50 [1, 14] is reported as 8 to 12 µM, the IC50 [1, 15] is reported as 12 µM and the “MDR Ratio (IC50 doxorubicin alone / IC50 doxorubicin in presence of modifier)” value [2] is reported as 2.2. It also gave an IC50 [3] of 28 µM.
In the case of CN(C)CCCN1c2ccccc2[S+]([O-])c2ccc(Cl)cc21 (stereo not shown) [Chlorpromazine Sulfoxide], the “inhibition of cell growth, comparison in words” value [1] is reported as “lost most of its antiproliferative effect”, the IC50 [1, 16] is reported as 500 µM and the “anti-MDR activity, comparison in words” value [2] is reported as “retained its effect against MDR”. The IC50 [3] was 2200 µM.
For CN(C)CCCN1c2ccccc2Sc2ccc(Cl)cc21 [Chlorpromazine], the IC50 [1, 17] was 8 µM, the IC50 [1, 18] was 8 to 12 µM and the “sensitization of MCF-7/DOX cells to doxorubicin” value [2] was 60%. The “octanol:buffer partition coefficient (log P)” value [4] was 4.04.
Compound CNCCCN1c2ccccc2Sc2ccc(Cl)cc21 [Desmethylchlorpromazine] has an IC50 [1, 14] of 8 to 12 µM, an IC50 ([1]; MCF-7/DOX cells, 48 h, drug alone; listed as desmethylchlorpromazine; read-out: IC50 for cell growth inhibition) of 8 µM and an IC50 [1, 15] of 8 µM. For the same compound, the “MDR Ratio (IC50 doxorubicin alone / IC50 doxorubicin in presence of modifier)” value [2] was 1.2 and the IC50 [3] was 45 µM.
With NCCCN1c2ccccc2Sc2ccc(Cl)cc21 [Didesmethylchlorpromazine] the IC50 [1, 14] was 8 to 12 µM, the IC50 [1, 15] was 11 µM and the “MDR Ratio (IC50 doxorubicin alone / IC50 doxorubicin in presence of modifier)” value [2] was 1.1. The IC50 [3] was 38 µM.
With COc1cccc2c1C(=O)c1c(O)c3c(c(O)c1C2=O)C[C@@](O)(C(=O)CO)C[C@@H]3O[C@H]1C[C@H](N)[C@H](O)[C@H](C)O1 [Doxorubicin] the IC50 [1, 16] was 12 µM, the “resistance to doxorubicin of MCF-7/DOX cells relative to parental cell line” value ([1]; human, mcf-7/dox cells) was “approximately 200 fold” and the “doxorubicin accumulation, fold less in MCF-7/DOX than in sensitive cell line” value [5] was “approximately 10 fold”.
In the case of CC1CNCCN1S(=O)(=O)c1cccc2cnccc12 (stereo not shown) [H-7, 1-(5-isoquinolinylsulfonyl)-2-methylpiperazine], the “sensitization of L1210/DOX cells” value [6] is listed as “failed to sensitize L1210/DOX cells” and the “sensitization of KC/ADR10 human breast cells” value [7] is listed as “does sensitize KC/ADR10 human breast cells”.
CN(C)CCCN1c2ccccc2CCc2ccccc21 [Imipramine] gave an IC50 [1, 19] of 19 µM and an IC50 [3] of 125 µM.
For OC1(c2ccc(Cl)c(C(F)(F)F)c2)CCN(CCCC(c2ccc(F)cc2)c2ccc(F)cc2)CC1 [Penfluridol], the IC50 [1, 19] was 3 µM, the “MDR Ratio (IC50 doxorubicin alone / IC50 doxorubicin in presence of modifier)” value [2] was 2.0 and the IC50 [3] was 3 µM.
With OCCN1CCN(CCCN2c3ccccc3Sc3ccc(Cl)cc32)CC1 [Perphenazine] the IC50 [1, 17] was 32 µM.
For O=c1[nH]c2ccccc2n1C1CCN(CCCC(c2ccc(F)cc2)c2ccc(F)cc2)CC1 [Pimozide], the “octanol:buffer partition coefficient (log P)” value [4] is listed as 4.88 and the IC50 [3] is listed as 7 µM.
In the case of CN(C)CCCN1c2ccccc2Sc2ccccc21 [Promazine], the IC50 [1, 14] is reported as 26 µM, the IC50 [1, 15] is reported as 27 µM and the “MDR Ratio (IC50 doxorubicin alone / IC50 doxorubicin in presence of modifier)” value [2] is reported as 1.2. The “sensitization of MCF-7/DOX cells to doxorubicin” value ([2]; modifier at 10% growth inhibitory concentration) was 20% and the IC50 [3] was 110 µM.
With CC(CN1c2ccccc2Sc2ccccc21)N(C)C (stereo not shown) [Promethazine] the “inhibition of cell growth, comparison in words” value [1] was “less potent inhibitor of cell growth than promazine” and the IC50 [1, 17] was 29 µM.
With CCN(CC)CCCC(C)Nc1c2ccc(Cl)cc2nc2ccc(OC)cc12 (stereo not shown) [Quinacrine] the IC50 [1, 19] was 3 µM, the “MDR Ratio (IC50 doxorubicin alone / IC50 doxorubicin in presence of modifier)” value [2] was 1.3 and the IC50 [3] was 42 µM.
With CSc1ccc2c(c1)N(CCCN(C)C)c1ccccc1S2 [Thiomethylpromazine] the IC50 [1, 14] was 20 µM, the “MDR Ratio (IC50 doxorubicin alone / IC50 doxorubicin in presence of modifier)” value [2] was 1.5 and the IC50 [3] was 42 µM.
In the case of CN1CCN(CCCN2c3ccccc3Sc3ccc(C(F)(F)F)cc32)CC1 [Trifluoperazine], the IC50 [1, 17] is given as 19 µM, the “dose limiting side effects in combination trials” value [8] is given as “Extrapyramidal side effects have proven to be dose limiting” and the “dose limiting side effects in combination trials” value ([8]; listed as trifluperazine) is given as “extrapyramidal side effects”. The “phosphorylation of P-glycoprotein, doxorubicin accumulation and cytotoxicity” value [9] was “increased phosphorylation of this protein in MDR Chinese hamster lung cells and enhanced doxorubicin accumulation and cytotoxicity” and the “reversal of phorbol ester effects on anthracycline resistance” value [10] was “reversed”.
Compound CN(C)CCCN1c2ccccc2Sc2ccc(C(F)(F)F)cc21 [Trifluopromazine] has an IC50 [1, 17] of 16 µM and an IC50 [1, 18] of 14 µM.
OCCN1CCN(CC/C=C2/c3ccccc3Sc3ccc(C(F)(F)F)cc32)CC1 [cis-Flupenthixol] gave an IC10 [1, 20] of 3 µM, an IC50 [1, 21] of 24 µM and a cell associated drug concentration at 3 μM [11] of 830 ± 80 pmol/10^6 cells. For the same compound, the cell associated drug concentration at 10 μM [11] was 1420 ± 250 pmol/10^6 cells, the cell associated drug concentration at 100 μM [11] was 7000 ± 330 pmol/10^6 cells and the “cellular accumulation of thioxanthene isomers, in words” value [11] was “equivalent, dose-dependent fashion”. For the same compound, the “anti-CaM effect of thioxanthene stereoisomers” value [12] was “no difference between cis and trans-flupenthixol” and the “octanol:buffer partition coefficient (log P)” value [4] was 4.25.
With OCCN1CCN(CC/C=C2\c3ccccc3Sc3ccc(C(F)(F)F)cc32)CC1 [trans-Flupenthixol] the IC50 [1, 16] was 25 µM, the IC10 [1, 20] was 6 µM and the IC50 [1, 21] was 25 µM. For the same compound, the cell associated drug concentration at 3 μM [11] was 420 ± 80 pmol/10^6 cells, the cell associated drug concentration at 10 μM [11] was 1000 ± 250 pmol/10^6 cells and the cell associated drug concentration at 100 μM [11] was 6000 ± 330 pmol/10^6 cells. For the same compound, the “cellular accumulation of thioxanthene isomers, in words” value [11] was “equivalent, dose-dependent fashion”, the “anti-CaM effect of thioxanthene stereoisomers” value [12] was “no difference between cis and trans-flupenthixol” and the “extrapyramidal side effects / toxicity of flupenthixol isomers” value [13] was “lacks these side effects; also recorded: far less toxic; also recorded: apparent lack of extrapyramidal side effects”. For the same compound, the “octanol:buffer partition coefficient (log P)” value [4] was 4.25.

Source: patent US5104858A, “Sensitizing multidrug resistant cells to antitumor agents” (priority 1988, dated 1992)
